Several values for one entry are separate records, joined by “and”; a condition that tells them apart may be missing. Equal entries are not always repeated. Where two headings read alike, the source gives them in different places.

These results are taken from PMC12081029, “Structural, Spectroscopic, and Docking Analysis of N,O‐Donor Ligand Metal Complex Nanoparticles With Hypolipidemic Effects via Lipoprotein Lipase Activation in High‐Fat Diet Mice” (Chemistry & Biodiversity, 2024).

Assay [1] has as its system Bacillus subtilis. Briefly: MIC / MBC determination.
In assay [2] the test system is Bacillus subtilis. Briefly: Agar diffusion, inhibition zone (ZOI) and activity index. Conditions: Bacillus subtilis. (In general: A growth-free zone around the sample is the usual read-out of agar diffusion tests.)
In the next assay the test system is Staphylococcus aureus. To be noted: cited from earlier work; for Staphylococcus aureus (inhibition zone): in mm.
Another assay relates to Escherichia coli. Conditions: cited from earlier work; for Escherichia coli (inhibition zone): in mm.
In assay [3] the test system is Bacillus subtilis. Conditions: cited from earlier work; for Bacillus subtillis (inhibition zone): in mm.
Setting [4] is: Table 9, preceding research ref [9].
Setting [5] is: Table 9, preceding research ref [7].
Setting [6] is: Table 9, preceding research ref [11].

On to `O.c1cnc2c(c1)ccc1cccnc12` [Phen.H2O, 1,10‐phenanthroline monohydrate], for which, in the assay on Bacillus subtilis [1], the MBC was 0.032 µg/mL; the MIC was 0.025 µg/mL and 0.025 ± 0.03 µg/mL. Further, the ZOI in the assay with Bacillus subtilis [2] (10^−3 M in DMF, 5 mm holes, 20 h at 37°C) stood at 1.1 ± 0.16 mm. In the assay with Bacillus subtilis [2] (ZOI of compound / ZOI of standard (ampicillin) × 100), the AI is 3.87%.
Take `O.O.O.O=C([O-])COCCN1CCN(C(c2ccccc2)c2ccc(Cl)cc2)CC1.O=C([O-])COCCN1CCN(C(c2ccccc2)c2ccc(Cl)cc2)CC1.[Cu+2]` (stereo not shown) [[Cu(CETZ)2(H2O)2].H2O]: in the assay on Staphylococcus aureus (setting [4]), the “Staphylococcus aureus (inhibition zone)” value is 15.21 ± 0.46. Further, the “Escherichia coli (inhibition zone)” value in the assay with Escherichia coli (setting [4]) is 13.43 ± 0.39. Besides, the “Bacillus subtillis (inhibition zone)” value in the assay on Bacillus subtilis [3] (setting [4]) was 18.31 ± 0.55.
Regarding `CC(N)C(=O)[O-].O.O=C([O-])COCCN1CCN(C(c2ccccc2)c2ccc(Cl)cc2)CC1.[Cu+2]` (stereo not shown) [[Cu(CETZ)(Ala)(H2O)]], the AI is 56.93 in the assay on Staphylococcus aureus (Table 9, Staphylococcus aureus ref [7]); 52.91 in the assay on Escherichia coli (Table 9, Escherichia coli ref [7]); 42.9 in the assay with Bacillus subtilis [3] (Table 9, Bacillus subtillis ref [7]). The “Staphylococcus aureus (inhibition zone)” value with Staphylococcus aureus (setting [5]) is given as 15.6 ± 0.4. In addition, the “Escherichia coli (inhibition zone)” value with Escherichia coli (setting [5]) was 11.8 ± 0.5. Further, in the assay with Bacillus subtilis [3] (setting [5]), the “Bacillus subtillis (inhibition zone)” value is given as 13.9 ± 0.3.
Consider [Cu(AMBI)(CETZ)(NO3)(H2O)2], for which the AI in the assay with Staphylococcus aureus (Table 9, Staphylococcus aureus ref [11]) is reported as 96.72; in the assay on Escherichia coli (Table 9, Escherichia coli ref [11]), 95.10; with Bacillus subtilis [3] (Table 9, Bacillus subtillis ref [11]), 89.2. Further, the “Staphylococcus aureus (inhibition zone)” value in the assay with Staphylococcus aureus (setting [6]) is on record as 26.5 ± 0.6. In addition, the “Escherichia coli (inhibition zone)” value in the assay with Escherichia coli (setting [6]) is 21.3 ± 0.4. Besides, in the assay on Bacillus subtilis [3] (setting [6]), the “Bacillus subtillis (inhibition zone)” value is given as 28.9 ± 0.3.

The MBC is the lowest tested concentration that kills the bacteria rather than only halting them. By MIC is commonly meant the least concentration at which growth counts as inhibited. The low end stands for inhibition by little substance, the high end for a need for much substance.
